Assay results as given in PubChem BioAssay AID328 (DTP/NCI, 2004).
Where “and” joins values, the source holds several entries; their conditions need not be identical. Equal entries are not always repeated. Toxic doses and inconclusive results are not listed.

System: BDF1 mice, P388 leukemia ip, median survival T/C
Test: NCI In Vivo Anticancer Drug Screen. Data for tumor model P388 Leukemia (intraperitoneal) in B6D2F1 (BDF1) mice
Details: endpoint: median survival time, higher = longer survival
Outline: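 Each value expresses how treatment altered survival: treated-mouse outcome over vehicle-mouse outcome, both groups bearing the transplanted tumour.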

[1] = dose: 100.0 mg/kg/injection, schedule: Q01DX009 (ip), vehicle: Klucel (hydroxypropylcellulose) (HPC)
[2] = dose: 100.0 mg/kg/injection, schedule: Q04DX003 (ip), vehicle: Klucel (hydroxypropylcellulose) (HPC)
[3] = dose: 200.0 mg/kg/injection, schedule: Q01DX009 (ip), vehicle: Klucel (hydroxypropylcellulose) (HPC)
[4] = dose: 200.0 mg/kg/injection, schedule: Q04DX003 (ip), vehicle: Klucel (hydroxypropylcellulose) (HPC)
[5] = dose: 400.0 mg/kg/injection, schedule: Q01DX009 (ip), vehicle: Klucel (hydroxypropylcellulose) (HPC)
[6] = dose: 400.0 mg/kg/injection, schedule: Q04DX003 (ip), vehicle: Klucel (hydroxypropylcellulose) (HPC)
[7] = dose: 50.0 mg/kg/injection, schedule: Q04DX003 (ip), vehicle: Klucel (hydroxypropylcellulose) (HPC)
[8] = dose: 100.0 mg/kg/injection, schedule: Q04DX003 (ip), vehicle: saline
[9] = dose: 200.0 mg/kg/injection, schedule: Q04DX003 (ip), vehicle: saline
[10] = dose: 400.0 mg/kg/injection, schedule: Q04DX003 (ip), vehicle: saline
[11] = dose: 100.0 mg/kg/injection, schedule: Q01DX009 (ip), vehicle: other
[12] = dose: 16.5 mg/kg/injection, schedule: Q01DX009 (ip), vehicle: saline
[13] = dose: 37.5 mg/kg/injection, schedule: Q01DX009 (ip), vehicle: saline
[14] = dose: 200.0 mg/kg/injection, schedule: Q01DX009 (ip), vehicle: saline
[15] = dose: 50.0 mg/kg/injection, schedule: Q01DX009 (ip), vehicle: saline with Tween-80
[16] = dose: 100.0 mg/kg/injection, schedule: Q01DX009 (ip), vehicle: saline with Tween-80
[17] = dose: 200.0 mg/kg/injection, schedule: Q01DX009 (ip), vehicle: saline with Tween-80
[18] = dose: 50.0 mg/kg/injection, schedule: Q01DX009 (ip), vehicle: saline
[19] = dose: 100.0 mg/kg/injection, schedule: Q01DX009 (ip), vehicle: saline
[20] = dose: 400.0 mg/kg/injection, schedule: Q01DX009 (ip), vehicle: saline
[21] = dose: 25.0 mg/kg/injection, schedule: Q01DX009 (ip), vehicle: saline
[22] = dose: 100.0 mg/kg/injection, schedule: Q04DX003 (ip), vehicle: saline with Tween-80
[23] = dose: 200.0 mg/kg/injection, schedule: Q04DX003 (ip), vehicle: saline with Tween-80
[24] = dose: 400.0 mg/kg/injection, schedule: Q04DX003 (ip), vehicle: saline with Tween-80
[25] = dose: 25.0 mg/kg/injection, schedule: Q04DX003 (ip), vehicle: saline
[26] = dose: 50.0 mg/kg/injection, schedule: Q04DX003 (ip), vehicle: saline

CCOC(=O)C(/C=N/C(N)=O)=C(\C)O
T/C [1]: 87 % of control
T/C [2]: 100 % of control
T/C [3]: 95 % of control
T/C [4]: 95 % of control
T/C [5]: 87 % of control
T/C [6]: 95 % of control

CC(=O)OCC(=O)[C@@]1(O)CC[C@H]2[C@@H]3CCC4=CC(=O)CC[C@]4(C)[C@@]3(F)[C@@H](O)C[C@@]21C
T/C (dose: 50.0 mg/kg/injection, schedule: Q01DX009 (sc), vehicle: steriod suspending solution): 104 % of control
T/C (dose: 100.0 mg/kg/injection, schedule: Q01DX009 (sc), vehicle: steriod suspending solution): 104 % of control
T/C (dose: 100.0 mg/kg/injection, schedule: Q04DX003 (sc), vehicle: steriod suspending solution): 115 % of control
T/C (dose: 200.0 mg/kg/injection, schedule: Q04DX003 (sc), vehicle: steriod suspending solution): 115 % of control

O=S(=O)(Nc1ccc(C(F)(F)F)cc1)c1ccc(C(F)(F)F)cc1
T/C [7]: 90 % of control
T/C [2]: 90 % of control

O=[N+]([O-])c1ccc(-c2ncc3cnccn23)cc1
T/C [8]: 111 % of control
T/C [9]: 97 % of control
T/C [10]: 102 % of control

CCCCNc1ccc([N+](=O)[O-])cc1[N+](=O)[O-]
T/C (dose: 50.0 mg/kg/injection, schedule: Q01DX009 (ip), vehicle: other): 95 % of control
T/C [11]: 101 % of control
T/C (dose: 200.0 mg/kg/injection, schedule: Q01DX009 (ip), vehicle: other): 105 % of control

CC1=[N+](C)C(C)(C)CC(C)O1 (stereo not given)
T/C (dose: 4.5 mg/kg/injection, schedule: Q01DX009 (ip), vehicle: saline): 100 % of control
T/C (dose: 6.25 mg/kg/injection, schedule: Q01DX009 (ip), vehicle: saline): 100 % of control
T/C (dose: 7.0 mg/kg/injection, schedule: Q01DX009 (ip), vehicle: saline): 108 % of control
T/C (dose: 11.0 mg/kg/injection, schedule: Q01DX009 (ip), vehicle: saline): 100 % of control
T/C (dose: 12.5 mg/kg/injection, schedule: Q01DX009 (ip), vehicle: saline): 95 % of control
T/C [12]: 103 % of control and 104 % of control
T/C [13]: 92 % of control and 109 % of control
T/C [14]: 90 % of control

Cc1ncc(CSc2ccccc2N)c(CO)c1O
T/C [15]: 91 % of control
T/C [16]: 92 % of control
T/C [17]: 94 % of control

CC(C)(C)N1CC1CN (stereo not given)
T/C [18]: 90 % of control
T/C [19]: 90 % of control
T/C [14]: 89 % of control
T/C [20]: 121 % of control

C=C1C(=O)OC2CC(C)C3(O)OC(C)(CC(OC(=O)C(C)C)C12)CC3O (stereo not given)
T/C (dose: 13.0 mg/kg/injection, schedule: Q01DX009 (ip), vehicle: saline): 120 % of control
T/C [21]: 110 % of control
T/C [18]: 95 % of control

Brc1cnc(OCc2ccccc2)nc1OCc1ccccc1
T/C [16]: 103 % of control
T/C [22]: 104 % of control
T/C [17]: 103 % of control
T/C [23]: 104 % of control
T/C (dose: 400.0 mg/kg/injection, schedule: Q01DX009 (ip), vehicle: saline with Tween-80): 107 % of control
T/C [24]: 108 % of control

CC(C(=O)O)[Se](=O)O (stereo not given)
T/C (dose: 12.5 mg/kg/injection, schedule: Q04DX003 (ip), vehicle: saline): 101 % of control
T/C [25]: 101 % of control
T/C [26]: 100 % of control

CC(=O)OC1CC2(C)C3(CO3)C1OC1C=C(C)C(=O)C(O)C12CO (stereo not given)
T/C (dose: 5.0 mg/kg/injection, schedule: Q04DX002 (ip), vehicle: saline + alcohol): 105 % of control
T/C (dose: 10.0 mg/kg/injection, schedule: Q04DX002 (ip), vehicle: saline + alcohol): 100 % of control
T/C (dose: 20.0 mg/kg/injection, schedule: Q04DX002 (ip), vehicle: saline + alcohol): 107 % of control
T/C (dose: 40.0 mg/kg/injection, schedule: Q04DX002 (ip), vehicle: saline + alcohol): 109 % of control

CC(=O)N(N=Nc1ccccc1)c1cccc2ccccc12
T/C (dose: 25.0 mg/kg/injection, schedule: Q01DX009 (ip), vehicle: Klucel (hydroxypropylcellulose) (HPC)): 109 % of control and 113 % of control
T/C (dose: 35.0 mg/kg/injection, schedule: Q01DX009 (ip), vehicle: Klucel (hydroxypropylcellulose) (HPC)): 103 % of control
T/C (dose: 50.0 mg/kg/injection, schedule: Q01DX009 (ip), vehicle: Klucel (hydroxypropylcellulose) (HPC)): 107 % of control
T/C [7]: 100 % of control
T/C [2]: 110 % of control

CCN(CC)CC(=O)Nc1ccc(Cl)cc1Cc1ccccc1
T/C [15]: 110 % of control
T/C [16]: 106 % of control
T/C [17]: 105 % of control

CC(C)(C)C1COP(=O)(c2ccccc2)N(c2ccccc2)C1 (stereo not given)
T/C (dose: 50.0 mg/kg/injection, schedule: Q01DX005 (ip), vehicle: saline with Tween-80): 92 % of control
T/C (dose: 100.0 mg/kg/injection, schedule: Q01DX005 (ip), vehicle: saline with Tween-80): 91 % of control

O=c1oc2cccc(O)c2c2c1CCCC2
T/C [2]: 100 % of control
T/C [4]: 104 % of control
T/C [6]: 100 % of control

O=C(C1CC2CCC1C2)C1CC2CCC1C2 (stereo not given)
T/C [11]: 95 % of control
T/C [2]: 100 % of control
T/C [4]: 108 % of control
T/C [6]: 104 % of control

CCN(C(=O)C(F)(F)F)C1(c2ccc(Cl)cc2)CCCCC1SSSC1CCCCC1(c1ccc(Cl)cc1)N(CC)C(=O)C(F)(F)F (stereo not given)
T/C [22]: 100 % of control
T/C [23]: 100 % of control
T/C [24]: 104 % of control

C(=C\c1nc2ccccc2[nH]1)/c1nc2ccccc2[nH]1
T/C (dose: 25.0 mg/kg/injection, schedule: Q01DX009 (ip), vehicle: saline with Tween-80): 100 % of control
T/C [15]: 100 % of control
T/C [16]: 92 % of control
T/C [17]: 98 % of control

NC(=O)c1nc2c([nH]c1=O)CCCC2
T/C [18]: 101 % of control
T/C [19]: 100 % of control
T/C [8]: 109 % of control
T/C [14]: 110 % of control
T/C [9]: 104 % of control
T/C [20]: 93 % of control
T/C [10]: 95 % of control

C/C=C(/Cl)c1c(C)cc(C)cc1C
T/C [16]: 108 % of control
T/C [22]: 100 % of control
T/C [17]: 108 % of control
T/C [23]: 111 % of control
T/C [24]: 103 % of control

CN=S(=O)(OCCOCCOS(=O)(=NC)c1ccc(C)cc1)c1ccc(C)cc1 (stereo not given)
T/C [15]: 111 % of control
T/C [16]: 108 % of control
T/C [17]: 114 % of control

C(=N\Nc1nc2ccccc2s1)/c1ccc(/C=N/Nc2nc3ccccc3s2)cc1
T/C [1]: 109 % of control
T/C [2]: 104 % of control
T/C [3]: 114 % of control
T/C [4]: 100 % of control
T/C [5]: 100 % of control
T/C [6]: 104 % of control

CC(Br)C1(c2cccc([N+](=O)[O-])c2)OCCO1 (stereo not given)
T/C (dose: 25.0 mg/kg/injection, schedule: Q01DX001 (ip), vehicle: Klucel (hydroxypropylcellulose) (HPC)): 100 % of control
T/C (dose: 50.0 mg/kg/injection, schedule: Q01DX001 (ip), vehicle: Klucel (hydroxypropylcellulose) (HPC)): 104 % of control
T/C (dose: 100.0 mg/kg/injection, schedule: Q01DX001 (ip), vehicle: Klucel (hydroxypropylcellulose) (HPC)): 90 % of control and 100 % of control

Cn1c(O)c(C=N)c(=O)n(C)c1=O
T/C (dose: 12.0 mg/kg/injection, schedule: Q01DX009 (ip), vehicle: saline): 118 % of control
T/C [21]: 109 % of control
T/C [25]: 92 % of control
T/C [18]: 100 % of control
T/C [26]: 100 % of control

O=C1CCCN1C1=CC2=C(CCc3ccccc32)S(=O)(=O)O1
T/C [8]: 90 % of control
T/C [9]: 100 % of control
T/C [10]: 100 % of control

S=P(N1CCCCCC1)(N1CC1)N1CC1
T/C [12]: 154 % of control
T/C [21]: 195 % of control
T/C [13]: 122 % of control

C/C=C(/C)C(=O)O[C@H]1CCN2CC=C(COC(=O)[C@@](O)([C@H](C)OC)C(C)(C)O)[C@H]12
T/C (dose: 12.5 mg/kg/injection, schedule: Q01DX010 (ip), vehicle: saline): 95 % of control
T/C (dose: 25.0 mg/kg/injection, schedule: Q01DX010 (ip), vehicle: saline): 100 % of control
